Results reported in patent US8003360B2, “Debaryomyces castellii phytase” (Adisseo France S.A.S., priority 2005, dated 2011).
“Also recorded” adds a separate entry of the source. Read-outs that look alike come from different tables or passages of the source.

Experiments:
D. castellii phytase [1] = assay: Substrate specificity, phosphate release kinetics (Table 6A); type: biochemical, Debaryomyces castellii; details: 250 mM sodium acetate buffer, 1 mM CaCl2, pH 4, 37° C.
Experimental: The reaction is triggered by the addition of the enzymatic extract (1 volume). The reaction is stopped by acidification of the medium with 20% trichloroacetic acid (1 volume of reaction medium+1 volume of acid). The amount of phosphate released is determined after various incubation times.

D. castellii phytase [2] = assay: Influence of effectors on phytase activity; type: biochemical, Debaryomyces castellii; details: for inhibition of phytase activity: concentrations see Table 3
[3] = target: T1, Debaryomyces castellii CBS 2923 phytase, native (wild type), SEQ ID No. 2 (Schwanniomyces capriottii, UniProt A2TBB4); assay: Influence of effectors on the phytase activity; type: biochemical; details: for effect on the phytase activity (in words): Table 3
Experimental: (§1) The amount of phosphate released is measured by colorimetery. The visualizing solution, prepared extemporaneously, contains iron sulphate (380 mM, 1 volume) and ammonium heptamolybdate (12 mM, 4 volumes). The absorbance at 700 nm is measured after 30 minutes of visualization at ambient temperature (1 volume of reaction medium+1 volume of visualizing solution), using a UV/visible spectrophotometer (Beckman DU 530).

[4] = test system: Debaryomyces castellii CBS2923 phytase; assay: Influence of the environment (additives, calcium, buffer molarity) on thermostability of the phytase; type: physicochemical
Experimental: At the end of treatment, the extract is cooled in water at +4° C. […] Three types of elements are tested: • sugars or sugar alcohol: sucrose, lactose, trehalose, arabinose, glycerol, • the absence of calcium, • the molarity of the buffer. […] At the end of treatment, the extract is cooled in water to +4° C. […] Materials and Methods).

[5] = test system: Schwanniomyces occidentalis phytase; details: Segueilha et al., 1992; cited from earlier work
D. castellii phytase [6] = assay: Hydrolysis of various inositol phosphates (Table 6B); type: biochemical, Debaryomyces castellii; details: hydrolysis 30 minutes at 37° C., pH 4
[7] = target: recombinant Debaryomyces castellii CBS 2923 phytase (recPhyt, expressed in Pichia pastoris), SEQ ID No. 2 (Schwanniomyces capriottii, UniProt A2TBB4)
D. castellii phytase [8] = assay: Kinetic constants of the native phytase on substrates; type: biochemical, Debaryomyces castellii; details: +37° C., pH 4 with sodium phytate, pH 5.5 with p-NPP
Experimental: (§2) The effect of pH on the phytase activity is determined using the following buffer solutions: 200 mM glycine-HCl, pH 2-3.5; 200 mM sodium acetate-acetic acid, pH 3.5-7; and 200 mM tris-HCl, pH 7-9. The reactions are carried out at +37° C. using the phytate as substrate. The optimum temperature is determined by varying the temperature from +30° C. to +80° C. […] After the heat treatment, the mixture is cooled in ice and the phytase activity is determined using the phytate as substrate.
(§3) The kinetic constants are determined on 2 substrates.

[9] = target: T1, Debaryomyces castellii CBS 2923 phytase, native (wild type), SEQ ID No. 2; assay: Kinetic constants (specificity study) of the native phytase; type: biochemical; details: native enzyme
Experimental: as §2, §1, §3

recombinant phytase = assay: Kinetic constants of the recombinant phytase on substrates; type: biochemical, Debaryomyces castellii; details: Lineweaver-Burk representation
[10] = substrate: O=P(O)(O)O[C@H]1[C@H](OP(=O)(O)O)[C@@H](OP(=O)(O)O)[C@H](OP(=O)(O)O)[C@@H](OP(=O)(O)O)[C@H]1OP(=O)(O)O; assay: purified protein, by the assay type
[11] = additive 10% in 250 mM acetate buffer pH 4, 1 mM calcium
[12] = effector 5 mM, phytate control = 100
[13] = CaCl2 0 mM (absence of calcium), 250 mM acetate buffer pH 4
[14] = other: native enzyme, 37° C., pH 4 for sodium phytate, pH 5.5 for p-NPP

O=P(O)(O)OCC(O)CO (stereo in doubt) [L-α-glycerophosphate]
% activity (D. castellii phytase [1]; substrate 4 mM): 78%

OCCS [2-mercaptoethanol]
effect on phytase activity (D. castellii phytase [2]; inhibitors tested, see Table 3): absence of effect
% activity ([3]; effector 3 mM, phytate control 9 mM = 100): 107%

Nc1ncnc2c1ncn2[C@@H]1O[C@H](COP(=O)(O)OP(=O)(O)O)[C@@H](O)[C@H]1O [Adenosine 5′-diphosphate]
% activity (D. castellii phytase [1]; substrate 4 mM): 120%

Nc1ncnc2c1ncn2[C@@H]1O[C@H](COP(=O)(O)O)[C@@H](O)[C@H]1O [Adenosine 5′-monophosphate]
% activity (D. castellii phytase [1]; substrate 4 mM): 50%

Nc1ncnc2c1ncn2[C@@H]1O[C@H](COP(=O)(O)OP(=O)(O)OP(=O)(O)O)[C@@H](O)[C@H]1O [Adenosine 5′-triphosphate]
% activity (D. castellii phytase [1]; substrate 4 mM): 133%

O=C[C@@H](O)[C@H](O)[C@H](O)CO [Arabinose, arabinose]
activity after 1 h at 20° C. [4, 11]: 90
activity after 1 h at 66.5° C. [4, 11]: 36

[Ca+2].[Cl-].[Cl-] [CaCl2]
% activity (D. castellii phytase [2]; [12]): 90%
activity after 1 h at 20° C. [4, 13]: 100
activity after 1 h at 66.5° C. [4, 13]: 1

[Cl-].[Cl-].[Co+2] [CoCl2]
% activity (D. castellii phytase [2]): 42.3%

[Cl][Cr][Cl] [CrCl2]
% activity (D. castellii phytase [2]; [12]): 107.6%

[Cl][Cu][Cl] [CuCl2]
effect on phytase activity [5]: sensitive
% activity (D. castellii phytase [2]; [12]): 66.6%

O=C(O)C(O)COP(=O)(O)O (stereo not drawn) [D(−)3-phosphoglyceric acid]
% activity (D. castellii phytase [1]; substrate 4 mM): 95%

O=C(O)CN(CCN(CC(=O)O)CC(=O)O)CC(=O)O [EDTA]
% activity (D. castellii phytase [2]): 104.5%

[Cl][Fe]([Cl])[Cl] [FeCl3]
% activity (D. castellii phytase [2]; [12]): 92%

O=C(CO)[C@@H](O)[C@H](O)[C@H](O)COP(=O)(O)O [Fructose-6-phosphate]
% activity (D. castellii phytase [1]; substrate 4 mM): 35%

O=C[C@H](O)[C@@H](O)[C@H](O)[C@H](O)COP(=O)(O)O [Glucose-6-phosphate]
% activity (D. castellii phytase [1]; substrate 4 mM): 82%

OCC(O)CO [Glycerol, glycerol]
activity after 1 h at 20° C. [4, 11]: 96
activity after 1 h at 66.5° C. [4, 11]: 56

[Cl][Hg][Cl] [HgCl2]
% activity (D. castellii phytase [2]; [12]): 96.2%

O=P(O)(O)OC1[C@H](O)[C@H](O)C(O)[C@H](O)[C@H]1O (stereo partly shown) [Ins(1)P1]
% activity (D. castellii phytase [6]; substrate 1 mM): 58%

O=P(O)(O)O[C@H]1[C@H](O)[C@@H](O)[C@H](OP(=O)(O)O)[C@@H](O)[C@H]1O [Ins(1,4)P2]
% activity (D. castellii phytase [6]; substrate 0.1 mM): 65%

O=P(O)(O)O[C@@H]1[C@H](O)[C@H](O)[C@@H](OP(=O)(O)O)[C@H](OP(=O)(O)O)[C@H]1O [Ins(1,4,5)P3]
% activity (D. castellii phytase [6]; substrate 0.1 mM): 56%

O=P(O)(O)OC1[C@@H](O)[C@H](O)C(O)[C@H](O)[C@H]1O (stereo partly shown) [Ins(2)P1]
% activity (D. castellii phytase [6]; substrate 1 mM): 84%

OC[C@H]1O[C@@H](O[C@H]2[C@H](O)[C@@H](O)C(O)O[C@@H]2CO)[C@H](O)[C@@H](O)[C@H]1O (stereo partly shown) [Lactose, lactose]
activity after 1 h at 20° C. [4, 11]: 95
activity after 1 h at 66.5° C. [4, 11]: 47

[Cl-].[Cl-].[Mg+2] [MgCl2]
% activity (D. castellii phytase [2]; [12]): 68.7%

[Cl][Mn][Cl] [MnCl2]
inhibition of phytase activity (D. castellii phytase [2]): 72%
% activity (D. castellii phytase [2]; [12]): 28.8%

O=C1CCC(=O)N1Br [N-bromosuccinimide]
% activity (D. castellii phytase [2]; effector 0.1 and 1 mM, phytate control = 100): 1%
effect on phytase activity (D. castellii phytase [2]; inhibitors tested, see Table 3): completely inhibits
effect on the phytase activity (in words) [3]: completely inhibits the phytase activity

C=C(OP(=O)(O)O)C(=O)O [Phospho(enol)pyruvate]
% activity (D. castellii phytase [1]; substrate 4 mM): 130%

O=P(O)(O)O[C@H]1[C@H](OP(=O)(O)O)[C@@H](OP(=O)(O)O)[C@H](OP(=O)(O)O)[C@@H](OP(=O)(O)O)[C@H]1OP(=O)(O)O [Phytic acid, myo-inositol hexakisphosphate]
% activity (D. castellii phytase [1]; substrate 9 mM (control)): 100%
% activity (D. castellii phytase [6]; substrate 9 mM (control)): 91%

O=P(O)(O)O[C@H]1[C@H](OP(=O)(O)O)[C@@H](OP(=O)(O)O)[C@H](OP(=O)(O)O)[C@@H](OP(=O)(O)O)[C@H]1OP(=O)(O)O [Sodium phytate, sodium phytate]
affinity (in words) ([7]; phytate compared with p-NPP): greater affinity
Vm (D. castellii phytase [8]): 35.8 µmol/min/mg

OC[C@H]1O[C@@](CO)(O[C@H]2O[C@H](CO)[C@@H](O)[C@H](O)[C@H]2O)[C@@H](O)[C@@H]1O [Sucrose, sucrose]
activity after 1 h at 20° C. [4, 11]: 97
activity after 1 h at 66.5° C. [4, 11]: 57

OC[C@H]1O[C@H](O[C@H]2O[C@H](CO)[C@@H](O)[C@H](O)[C@H]2O)[C@H](O)[C@@H](O)[C@@H]1O [Trehalose, trehalose]
activity after 1 h at 20° C. [4, 11]: 94
activity after 1 h at 66.5° C. [4, 11]: 56

[Cl-].[Cl-].[Zn+2] [ZnCl2]
effect on phytase activity [5]: sensitive
% activity (D. castellii phytase [2]; [12]): 57%

O=P(O)(O)O[C@H]1[C@H](OP(=O)(O)O)[C@@H](OP(=O)(O)O)[C@H](OP(=O)(O)O)[C@@H](OP(=O)(O)O)[C@H]1OP(=O)(O)O [calcium phytate]
affinity of the phytase relative to p-nitrophenyl phosphate (pNPP) ([9]; calcium phytate versus pNPP): 4 times

II [iodine]
% activity (D. castellii phytase [2]): 25.6%
inhibition of phytase activity (D. castellii phytase [2]): 75%

O=C(O)CI [iodoacetic acid]
% activity (D. castellii phytase [2]): 100%
effect on phytase activity (D. castellii phytase [2]): does not cause any inhibition; also recorded: absence of effect
effect on the phytase activity (in words) [3]: does not cause any inhibition of the activity

O=[N+]([O-])c1ccc(OP(=O)(O)O)cc1 [pNPP, p-nitrophenyl phosphate]
Km ([9]; 37° C., pH 4 for sodium phytate, pH 5.5 for p-NPP): 2270 µM
Km (recombinant phytase): 2050 µM
Vm (recombinant phytase): 274.6 U/mg
% activity (D. castellii phytase [1]; substrate 4 mM): 135%
Km ([7]; recombinant enzyme, Lineweaver-Burk, 37° C., pH 4 for sodium phytate, pH 5.5 for p-NPP): 2050 µM
Km (D. castellii phytase [8]): 2270 µM
Vm (D. castellii phytase [8]): 30.9 µmol/min/mg

N[C@@H](Cc1c[nH]c2ccccc12)C(=O)O [tryptophan]
effect on the phytase activity (in words) [3]: re-establishes the activity

B1: Debaryomyces castellii CBS 2923 phytase, native (wild type), SEQ ID No. 2 (Schwanniomyces capriottii) (protein)
chain: VSVSKLINNGLLLVGQGAYQDLASPQQASVEQYNIIRFLGGAAPYIQNKGFGISTDIPDQCTLEQVQLFSRHGERYPSTGSGKKYKAVYEKLMSYNGTFKGELAFLNDDYEYFVPDSVYLEKETSPKNSDSIYAGTTDAMKHGIAFRTKYGELFDTNDTLPVFTSNSGRVYQTSQYFARGFMGDDFSNDTVKTNIISEDADMGANSLTPRDGCFNYNENANTAIVDEYTTEYLTKALNRFKASNPGLNITEDDVSNLFGYCAYELNVKGASPMCDIFTNEEFIQYSYSVDLDDYYSNSAGNNMTRVIGSTLLNASLELLNHDKNENKIWLSFTHDTDIEIFHSAIGILIPDEDLPVDYTPFPSPYSHVGITPQGARTIIEKYACGNESYVRYVINDAVIPIKKCSSGPGFSCNLNDYNDYVAERVAGTNYVEQCGNNNASAVTFYWDYETTNYTASLINS
Km [10, 14]: 532 µM
Vmax [10, 14]: 35.8 µmol/min/mg

B2: recombinant Debaryomyces castellii CBS 2923 phytase (recPhyt, expressed in Pichia pastoris), SEQ ID No. 2 (Schwanniomyces capriottii) (protein)
chain: MVSVSKLINNGLLLVGQGAYQDLASPQQASVEQYNIIRFLGGAAPYIQNKGFGISTDIPDQCTLEQVQLFSRHGERYPSTGSGKKYKAVYEKLMSYNGTFKGELAFLNDDYEYFVPDSVYLEKETSPKNSDSIYAGTTDAMKHGIAFRTKYGELFDTNDTLPVFTSNSGRVYQTSQYFARGFMGDDFSNDTVKTNIISEDADMGANSLTPRDGCFNYNENANTAIVDEYTTEYLTKALNRFKASNPGLNITEDDVSNLFGYCAYELNVKGASPMCDIFTNEEFIQYSYSVDLDDYYSNSAGNNMTRVIGSTLLNASLELLNHDKNENKIWLSFTHDTDIEIFHSAIGILIPDEDLPVDYTPFPSPYSHVGITPQGARTIIEKYACGNESYVRYVINDAVIPIKKCSSGPGFSCNLNDYNDYVAERVAGTNYVEQCGNNNASAVTFYWDYETTNYTASLINS
Km ([10]; 37.0 °C): 240 µM
Vmax ([10]; 37.0 °C): 137.8 U/mg
